In patent US20230365563A1, “QUINAZOLINE COMPOUND AND APPLICATION THEREOF” (SHANGHAI PHARMACEUTICALS HOLDING CO., LTD., priority 2020, published 2023) one finds IC50 data, which are given here for 22 compounds.

Where a name gives a salt, the structure may show the parent alone.

A word on the IC50: it is the point on the concentration scale where inhibition reaches its midpoint.

The target in this experiment is T1, KRAS-G12D and SOS1 (Homo sapiens, UniProt P01116, G12D).
T1 construct: purchased
T1 sequence (P01116 1-188 isoform P01116-2 G12D): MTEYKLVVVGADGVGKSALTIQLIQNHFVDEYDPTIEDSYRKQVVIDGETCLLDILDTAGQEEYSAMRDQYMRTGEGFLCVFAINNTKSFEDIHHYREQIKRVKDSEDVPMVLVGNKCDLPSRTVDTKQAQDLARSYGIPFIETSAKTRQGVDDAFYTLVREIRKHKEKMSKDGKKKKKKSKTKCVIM
Put plainly: Inhibition of KRAS-G12D/SOS1 binding (Cisbio binding kit, 665/615 ratio), Effect Embodiment A. The settings on record: read-out: GTP-KRAS-G12D:SOS1 IC50. The procedure:
Similarly, the first dilution point of the compound to be tested was its storage solution, and the solution was 3-fold diluted, with 11+0 points of dilution. Echo was used to transfer 0.2 μL gradient diluted solution of the compounds into a 384-well plate, with 2 duplicated wells for each compound, and the final concentration of DMSO was 1%. The solution was centrifuged for 1 min at 1000 rpm/min.
IC50 of the compounds was fitted by Graphpad Prism 8 nonlinear regression equation: […]
The IC50 (half inhibitory concentration) of the compound was obtained by using the following nonlinear fitting formula: […]
`Oc1cc(-c2c(Cl)cc3c(N4CC5CCC(C4)N5)nc(OCCCN4CCOCC4)nc3c2F)c2ccccc2c1` (single isomer, unassigned) [Compound 54b, 4-((R or S)-4-((1R,5S)-3,8-diazabicyclo[3.2.1]octan-3-yl)-6-chloro-8-fluoro-2-(3-morpholinopropoxy)quinazolin-7-yl)naphthalen-2-ol dihydrochloride]: the IC50 is 22100 nM.

For `CN1CCOC[C@H]1COc1nc(N2CC3CCC(C2)N3)c2cc(Cl)c(-c3cc(O)cc4ccccc34)c(F)c2n1` (single isomer, unassigned) [Compound 122, 4-((S or R)-4-((1R,5S)-3,8-diazabicyclo[3.2.1]octan-3-yl)-6-chloro-8-fluoro-2-((S)-4-methylmorpholin-3-yl)methoxy)quinazolin-7-yl)naphthalen-2-ol dihydrochloride], the IC50 is 219 nM.

Regarding `CCc1cccc2cc(O)cc(-c3c(F)cc4c(N5CC6CCC(C5)N6)nc(OC[C@@]56CCCN5C[C@H](F)C6)nc4c3F)c12` (single isomer, unassigned) [Compound 285b, (R or S)-4-(4-((1R,5S)-3,8-diazacyclo[3.2.1]octan-3-yl)-6,8-difluoro-2-((2R,7aS)-2-fluorotetrahydro-1H-pyrrolidin-7a(5H-yl)methoxy)quinazolin-7-yl)-5-ethylnaphthalen-2-ol dihydrochloride], the IC50 is 1460 nM. For `CN(C)C1CN(c2nc(NCCO)c3cc(Cl)c(-c4cc(O)cc5ccccc45)c(F)c3n2)C1` (single isomer, unassigned) [Compound 18b, (S or R)-4-(6-chloro-2-(3-(dimethylamino)azetidin-1-yl)-8-fluoro-4-((2-hydroxyethyl)amino)-quinazolin-7-yl)naphthalen-2-ol] the value was 2360 nM; for `CN(C)C1CN(c2nc(N3C[C@H]4CC[C@@H](C3)[C@@H]4N)c3cc(Cl)c(-c4cc(O)cc5ccccc45)c(F)c3n2)C1` (single isomer, unassigned) [Compound 30, (S or R)-4-(4-((1R,5S,8S)-8-amino-3-azabicyclo[3.2.1]octan-3-yl)-6-chloro-2-(3-(dimethylamino)azetidin-1-yl)-8-fluoroquinazolin-7-yl)naphthalen-2-ol], 1230 nM; for `CN(C)C1CN(c2nc(N3CCNCC3)c3cc(Cl)c(-c4cc(O)cc5ccccc45)c(F)c3n2)C1` (single isomer, unassigned) [Comparative embodiment b, reference compound], 83400 nM. For `CCc1c(F)ccc2cc(O)cc(-c3c(Cl)cc4c(N5CC6CCC(C5)N6)nc(OC[C@H](C)CN5C6CCC5COC6)nc4c3F)c12` (single isomer, unassigned) [Compound 233a, 4-((7S or 7R)-2-((2R)-3-(3-oxa-8-azabicyclo[3.2.1]octan-8-yl)-2-methylpropoxy)-4-((1R,5S)-3,8-diazabicyclo[3.2.1]octan-3-yl)-6-chloro-8-fluoroquinazolin-7-yl)-5-ethyl-6-fluoronaphthalen-2-ol formate] the value was 3280 nM; for `CCc1cccc2cccc(-c3c(F)cc4c(N5CC6CCC(C5)N6)nc(OC[C@@]56CCCN5C[C@H](F)C6)nc4c3F)c12` (single isomer, unassigned) [Compound 281b, (R or S)-4-((1R,5S)-3,8-diazacyclo[3.2.1]octan-3-yl)-7-(8-ethylnaphthalen-1-yl)-6,8-difluoro-2-((2R,7aS)-2-fluorotetrahydro-1H-pyrrolin-7a(5H)-yl)methoxy)quinazoline dihydrochloride], 449 nM; for `CN(C)CCCn1c(=O)nc(N2CC3CCC(C2)N3)c2cc(Cl)c(-c3cc(O)cc4ccccc34)c(F)c21` (single isomer, unassigned) [Compound 74a, 4-((1R,5S)-3,8-diazabicyclo[3.2.1]octan-3-yl)-6-chloro-1-(3-(dimethylamino)propyl)-8-fluoro-7-((S or R)-3-hydroxynaphthalen-1-yl)quinazolin-2(1H)-one], 100000 nM. For `CN(C)C1CN(c2nc(C3CN(C(=N)N)C3)c3cc(Cl)c(-c4cc(O)cc5ccccc45)c(F)c3n2)C1` (single isomer, unassigned) [Compound 146] the value was 6930 nM; for `Oc1cc(-c2c(Cl)cc3c(N4CC5CCC(C4)N5)nc(OCCCN4CCC4)nc3c2F)c2ccccc2c1` (single isomer, unassigned) [Compound 59b, 4-((R or S)-2-(3-(azetidin-1-yl)propoxy)-4-((1R,5S)-3,8-diazabicyclo[3.2.1]octan-3-yl)-6-chloro-8-fluoroquinazolin-7-yl)naphthalen-2-ol], 5980 nM; for `CCc1c(F)ccc2cc(O)cc(-c3c(F)cc4c(N5CC6CCC(C5)N6)nc(OCCCN5C[C@@H](C)O[C@@H](C)C5)nc4c3F)c12` (single isomer, unassigned) [Compound 250b, (R or S)-4-(4-((1R,5S)-3,8-diazacyclo[3.2.1]octan-3-yl)-2-(3-((2R,6S)-2,6-dimethylmorpholinyl)propoxy)-6,8-difluoroquinazolin-7-yl)-5-ethyl-6-fluoronaphthalen-2-ol formate], 1630 nM. On to `CN1CCC1CCOc1nc(N2CC3CCC(C2)N3)c2cc(Cl)c(-c3cc(O)cc4ccccc34)c(F)c2n1` (single isomer, unassigned) [Compound 112b, 4-((S or R)-4-((1R,5S)-3,8-diazabicyclo[3.2.1]octan-3-yl)-6-chloro-8-fluoro-2-(2-((R or S)-1-methylazetidin-2-yl)ethoxy)quinazolin-7-yl)naphthalen-2-ol carboxylate], for which the IC50 worked out at 120 nM. For `CCc1cccc2cc(O)cc(-c3c(F)cc4c(N5CC6CCC(C5)N6)nc(OCCCN5C6CCC5COC6)nc4c3F)c12` (single isomer, unassigned) [Compound 271b, 4-((7R or 7S)-2-(3-(3-oxa-8-azabicyclo[3.2.1]octan-8-yl)propoxy)-4-((1R,5S)-3,8-diazabicyclo[3.2.1]octan-3-yl)-6,8-difluoroquinazolin-7-yl)-5-ethylnaphthalen-2-ol diformate] the value was 9410 nM; for `Oc1cc(-c2ncc3c(N4C[C@H]5CC[C@@H](C4)N5)nc(Oc4ccncc4)nc3c2F)c2ccccc2c1` [Compound 130, 4-(4-((1R,5S)-3,8-diazabicyclo[3.2.1]octan-3-yl)-8-fluoro-2-(pyridinyl-4-oxy)pyridyl[4,3-d]pyrimidin-7-yl)naphthalen-2-ol hydrochloride], 842 nM.

For `C#Cc1cccc2cc(O)cc(-c3c(F)cc4c(N5CC6CCC(C5)N6)nc(OCCCN5C6CCC5COC6)nc4c3F)c12` (single isomer, unassigned) [Compound 273b, 4-((7R or 7S)-2-(3-(3-oxa-8-azabicyclo[3.2.1]octan-8-yl)propoxy)-4-((1R,5S)-3,8-diazabicyclo[3.2.1]octan-3-yl)-6,8-difluoroquinazolin-7-yl)-5-ethynylnaphthalen-2-ol diformate], the IC50 was 1850 nM.

Regarding `CN(C)CCCCc1nc(N2CC3CCC(C2)N3)c2cc(Cl)c(-c3cc(O)cc4ccccc34)c(F)c2n1` (single isomer, unassigned) [Compound 154a, 4-((S or R)-4-((1R,5S)-3,8-diazabicyclo[3.2.1]octan-3-yl)-6-chloro-2-(4-(dimethylamino)butyl)-8-fluoroquinazolin-7-yl)naphthalen-2-ol dihydrochloride], the IC50 stood at 204 nM.

For the compound `CN(C)C1CN(c2nc(N3C[C@H]4C[C@@H]3CN4)c3cc(Cl)c(-c4cc(O)cc5ccccc45)c(F)c3n2)C1` (single isomer, unassigned) [Compound 3a, (R or S)-4-(4-((1R,4R)-2,5-diazabicyclo [2.2.1]heptan-2-yl)-6-chloro-2-(3-(dimethylamino)azetidin-1-yl)-8-fluoro-quinazolin-7-yl)naphthalen-2-ol], the IC50 stood at 1360 nM. For `CN1CCC[C@H]1COc1nc(N2CC3CCC(C2)N3)c2cc(F)c(-c3cc(O)cc4ccccc34)c(F)c2n1` (single isomer, unassigned) [Compound 160b, (S or R) 4-(4-((1R,5S)-3,8-diazabicyclo[3.2.1]octan-3-yl)-6,8-difluoro-2-((S)-1-methylpyrrolidin-2-yl)methoxy)quinazolin-7-yl)naphthalen-2-ol dihydrochloride] the value was 117 nM.

With `CN(C)C1CN(c2nc(N3C[C@H]4CC[C@@H](C3)N4)c3cc(Cl)c(-c4cc(O)cc5ccccc45)c(F)c3n2)C1` (single isomer, unassigned) [Compound 5b, (S or R)-4-(4-((1R,5S)-3,8 diazabicyclo [3.2.1]octan-3-yl)-6-chloro-2-(3-(dimethylamino)azetidin-1-yl)-8-fluoro-quinazolin-7-yl)naphthalen-2-ol], the IC50 was 63300 nM.

Take `CN(C)CCCSc1nc(N2C[C@H]3CC[C@@H](C2)N3)c2cc(Cl)c(-c3cc(O)cc4ccccc34)c(F)c2n1` (single isomer, unassigned) [Compound 147, (S or R) 4-(4-((1R,5S)-3,8-diazabicyclo[3.2.1]octan-3-yl)-6-chloro-2-((3-(dimethylamino)propyl)thio)-8-fluoroquinazolin-7-yl)naphthalen-2-ol dihydrochloride]: the IC50 stood at 605 nM. For `N=[S+]1([O-])CC2CCC(C1)N2CCCOc1nc(N2CC3CCC(C2)N3)c2cc(Cl)c(-c3cc(O)cc4ccccc34)c(F)c2n1` (single isomer, unassigned) [Compound 213b, (1R,3R or 3S,5S)-8-(3-((4-((1R,5S)-3,8-diazabicyclo[3.2.1]octan-3-yl)-6-chloro-8-fluoro-7-(3-hydroxynaphthalen-1-yl)quinazolin-2-yl)oxy)propyl)-3-imino-3λ^6-thia-8-azabicyclo[3.2.1]octane 3-oxide formate] the value was 673 nM.
